According to patent US20240239792A1, “MODULATORS OF BCL-2 OR BCL-2/BCL-XL AND USES THEREOF” (APPICINE THERAPEUTICS (HK) LIMITED, priority 2021, published 2024):

How the values were obtained:
[1] = test system: RS4;11 subcutaneous xenograft tumor; experiment: In vivo pharmacodynamic study, NOD/SCID RS4;11 subcutaneous xenograft tumor model; parameters: species or system NOD/SCID female mouse; conditions: q.d., after 20 days dosing
Protocol: In general, NOD/SCID RS4;11 subcutaneous xenograft tumor model was established by inoculating 5*10^6/0.1 ml/mouse subcutaneously in the right back of the NOD/SCID female mouse. The animals were checked daily for any effects of treatments on behaviors such as mobility, food and water consumption, body weight gain/loss, eyes, hairs and any other abnormalities. Mortality and clinical signs observed during the study were recorded in the raw data. Animal weight and tumor size were measured every two days during the study. Tumor volume (TV) was calculated as: TV=0.5*a*b^2, wherein a and b represent the measured length and width of tumor, respectively. Relative tumor proliferation inhibition rate (TGIRTV (%)), as an indication of anti-tumor effectiveness, was calculated as: TGIRTV (%)=(1−TRTV/CRTV)*100%, wherein TRTV and CRTV were relative tumor volume (RTV) in treatment group and vehicle control group, respectively. RTV was calculated as: RTV=Vt/V0, wherein Vt and V0 represented the tumor volume measured on day t after dosing and on the first day of dosing. At the end of last dosing, plasma and tumor tissue were collected, weighed, and photographed according to requirements of the study protocol.
The TGIRTV(%) values after 20 days dosing were shown in Table 5 below, where “+++” represented TGIRTV(%)≥[…]; “++” represented 30%<TGIRTV(%)<80%. p.o. stands for “per os”; I.P. stands for “intraperitoneal”; q.d. refers to “once daily”.

[2] = test system: DOHH2 cells; experiment: CellTiter-Glo cell proliferation assay, DOHH2 cells; format: cell-based; conditions: Homo sapiens, DOHH-2, 72 hours
How it was run: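 DOHH2 cells seeded in DMEM + 10% FBS, exposed to serially diluted compound for 72 h at 37 °C, 5% CO2. Viability read by CellTiter-Glo luminescence; GI50 calculated.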

[3] = target: T1, BCL-2 (Homo sapiens, UniProt P10415); experiment: HTRF BCL-2/BAK assay (Cisbio); format: binding; conditions: recombinant human Tag1-BCL-2 2 nM, Tag2-BAK 10 nM
T1 construct: purchased Cisbio 63ADK000CB01PEG
Protocol: (§1) Then the pre-mixed anti-Tag1-Eu^3+ and anti-tag2-XL665 were added to the plate and further incubated at room temperature for another 2 hours. The signals ([…]) were read on Envision 2104 instrument. The IC50 for each compound was derived from fitting the signal of 665/615 nM to the increasing compound concentration.
(§2) Using the above assays, the following compounds were tested.

[4] = target: T2, BCL-XL (Homo sapiens, UniProt Q07817); experiment: HTRF BCL-XL/BAK assay (Cisbio); format: binding; conditions: recombinant human Tag1-BCL-XL 2 nM, Tag2-BAK 5 nM
T2 construct: purchased Cisbio 63ADK000CB04PEG
Protocol: as §1, §2

[5] = target: T3, CYP2C9 (Homo sapiens, UniProt P11712); experiment: CYP2C9 activity assay in human liver microsomes, substrate diclofenac; format: in vitro ADME; conditions: probe diclofenac, test compound 1 μM, 37° C. 10 min, read-out: Inhibition rate (%) against CYP2C9 Enzyme
T3 construct: from tissue; host or cells: human liver microsomes
Protocol: In this assay, several exemplary compounds of the present disclosure and a control compound (Venetoclax) were used as the test compounds. In general, the assay was conducted by the following steps: • 1. The solution of test compound, human liver microsomes solution, and substrate (diclofenac) solution were mixed in a 96-well assay plate on ice to, and the final concentration of each test compound is 1 μM; • 2. The 96-well assay plate and NADPH solution were pre-incubated at 37° C. for 5 minutes; • 3. NADPH solution was added to into the assay plates to initiate the reaction; • 4. The assay plate was incubated at 37° C. for 10 min; • 5. The reaction was stopped; and after quenching, a portion of the supernatant was taken from each well for LC/MS analysis; • 6. The inhibition rate was calculated by the following equation: Inhibition rate (%)=(1−Valuetest/Valuecontrol)×100%, where Valuetest refers to the LC/MS data obtained from wells with test compounds and Valuecontrol refers to the LC/MS data obtained from wells without test compound.

T1 sequence (P10415 whole entry): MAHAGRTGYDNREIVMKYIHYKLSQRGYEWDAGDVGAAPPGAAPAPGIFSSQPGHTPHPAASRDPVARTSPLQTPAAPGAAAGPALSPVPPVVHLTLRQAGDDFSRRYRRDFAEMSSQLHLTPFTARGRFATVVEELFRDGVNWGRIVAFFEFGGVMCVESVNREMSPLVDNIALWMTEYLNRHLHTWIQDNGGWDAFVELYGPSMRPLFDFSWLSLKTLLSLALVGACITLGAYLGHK
T3 sequence (P11712 whole entry): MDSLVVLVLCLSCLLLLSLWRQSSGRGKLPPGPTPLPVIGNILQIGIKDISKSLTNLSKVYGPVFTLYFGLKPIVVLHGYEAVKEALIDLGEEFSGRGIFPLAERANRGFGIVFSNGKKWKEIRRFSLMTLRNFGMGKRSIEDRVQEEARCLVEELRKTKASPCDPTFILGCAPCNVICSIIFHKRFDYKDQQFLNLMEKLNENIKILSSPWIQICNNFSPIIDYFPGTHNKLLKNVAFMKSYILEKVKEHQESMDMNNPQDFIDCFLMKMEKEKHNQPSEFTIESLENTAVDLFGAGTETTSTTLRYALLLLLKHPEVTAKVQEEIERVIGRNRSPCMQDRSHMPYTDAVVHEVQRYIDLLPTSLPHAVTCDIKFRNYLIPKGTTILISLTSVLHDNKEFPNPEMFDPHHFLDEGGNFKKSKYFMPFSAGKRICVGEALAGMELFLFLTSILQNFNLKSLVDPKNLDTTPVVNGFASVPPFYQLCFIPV
T2 sequence (Q07817 whole entry): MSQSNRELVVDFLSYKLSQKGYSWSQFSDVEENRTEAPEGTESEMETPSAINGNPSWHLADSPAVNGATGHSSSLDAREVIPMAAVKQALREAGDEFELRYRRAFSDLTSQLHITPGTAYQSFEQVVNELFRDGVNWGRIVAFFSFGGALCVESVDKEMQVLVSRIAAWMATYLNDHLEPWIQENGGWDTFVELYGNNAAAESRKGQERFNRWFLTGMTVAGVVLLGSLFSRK

| SMILES | TGIRTV(%) ([1]; 25 mg/kg, p.o.) | GI50 [2] | IC50 [3] | IC50 [4] | TGIRTV(%) ([1]; 60 mg/kg, p.o.) | TGIRTV(%) ([1]; 21 mg/kg, I.P.) | inhibition at 10 min, 1 µM [5] | TGIRTV(%) ([1]; 50 mg/kg, p.o.) |
| --- | --- | --- | --- | --- | --- | --- | --- | --- |
| O=C(NS(=O)(=O)c1ccc(NCCN2CCOCC2)c([N+](=O)[O-])c1)c1ccc(N2CCN(C3CCCCc4c(Cl)cccc43)CC2)cc1Oc1cnc2[nH]ccc2c1 (centres unmarked) [Compound 31, 2-((1H-pyrrolo[2,3-b]pyridin-5-yl)oxy)-4-(4-(1-chloro-6,7,8,9-tetrahydro-5H-benzo[7]annulen-5-yl)piperazin-1-yl)-N-((4-((2-morpholinoethyl)amino)-3-nitrophenyl)sulfonyl)benzamide] | ++ (30%<TGIRTV(%)<80%) | < 50 nM | < 20 nM | 20 to 200 nM |  |  |  |  |
| O=C(NS(=O)(=O)c1ccc(NCC2CCOCC2)c([N+](=O)[O-])c1)c1ccc(N2CCN([C@@H]3CCCCc4c(Cl)cccc43)CC2)cc1Oc1cnc2[nH]ccc2c1 [Compound 70, (R)-2-((1H-pyrrolo[2,3-b]pyridin-5-yl)oxy)-4-(4-(1-chloro-6,7,8,9-tetrahydro-5H-benzo[7]annulen-5-yl)piperazin-1-yl)-N-((3-nitro-4-(((tetrahydro-2H-pyran-4-yl)methyl)amino)phenyl)sulfonyl)benzamide] |  | < 50 nM | < 20 nM |  | +++ (TGIRTV(%)≥800) |  |  |  |
| O=C(NS(=O)(=O)c1ccc(NCC2CC3(CCNCC3)C2)c([N+](=O)[O-])c1)c1ccc(N2CCN([C@@H]3CCCCc4c(Cl)cccc43)CC2)cc1Oc1cnc2[nH]ccc2c1 [Compound 104, (R)-2-((1H-pyrrolo[2,3-b]pyridin-5-yl)oxy)-N-((4-(((7-azaspiro[3.5]nonan-2-yl)methyl)amino)-3-nitrophenyl)sulfonyl)-4-(4-(1-chloro-6,7,8,9-tetrahydro-5H-benzo[7]annulen-5-yl)piperazin-1-yl)benzamide] |  | < 50 nM | < 20 nM | < 20 nM |  | +++ (TGIRTV(%)≥800) | < 30% |  |
| CS(=O)(=O)N1CCC2(CC1)CC(CNc1ccc(S(=O)(=O)NC(=O)c3ccc(N4CCN([C@@H]5CCCCc6c(Cl)cccc65)CC4)cc3Oc3cnc4[nH]ccc4c3)cc1[N+](=O)[O-])C2 [Compound 107, (R)-2-((1H-pyrrolo[2,3-b]pyridin-5-yl)oxy)-4-(4-(1-chloro-6,7,8,9-tetrahydro-5H-benzo[7]annulen-5-yl)piperazin-1-yl)-N-((4-(((7-(methylsulfonyl)-7-azaspiro[3.5]nonan-2-yl)methyl)amino)-3-nitrophenyl)sulfonyl)benzamide] |  | < 50 nM | < 20 nM | 20 to 200 nM |  |  | 31% |  |
| CN1CCC2(CC1)CC(CNc1ccc(S(=O)(=O)NC(=O)c3ccc(N4CCN([C@@H]5CCCCc6c(Cl)cccc65)CC4)cc3Oc3cnc4[nH]ccc4c3)cc1[N+](=O)[O-])C2 [Compound 108, (R)-2-((1H-pyrrolo[2,3-b]pyridin-5-yl)oxy)-4-(4-(1-chloro-6,7,8,9-tetrahydro-5H-benzo[7]annulen-5-yl)piperazin-1-yl)-N-((4-(((7-methyl-7-azaspiro[3.5]nonan-2-yl)methyl)amino)-3-nitrophenyl)sulfonyl)benzamide] |  | < 50 nM | < 20 nM | < 20 nM |  |  | < 30% |  |
| CC(=O)NCCN1CCC2(CC1)CC(CNc1ccc(S(=O)(=O)NC(=O)c3ccc(N4CCN([C@@H]5CCCCc6c(Cl)cccc65)CC4)cc3Oc3cnc4[nH]ccc4c3)cc1[N+](=O)[O-])C2 [Compound 112, (R)-2-((1H-pyrrolo[2,3-b]pyridin-5-yl)oxy)-N-((4-(((7-(2-acetamidoethyl)-7-azaspiro[3.5]nonan-2-yl)methyl)amino)-3-nitrophenyl)sulfonyl)-4-(4-(1-chloro-6,7,8,9-tetrahydro-5H-benzo[7]annulen-5-yl)piperazin-1-yl)benzamide] |  | < 50 nM | < 20 nM | < 20 nM |  |  | 33% |  |
| O=C(NS(=O)(=O)c1ccc(NCC2CC3(CCN(CC(F)F)CC3)C2)c([N+](=O)[O-])c1)c1ccc(N2CCN([C@@H]3CCCCc4c(Cl)cccc43)CC2)cc1Oc1cnc2[nH]ccc2c1 [Compound 113, (R)-2-((1H-pyrrolo[2,3-b]pyridin-5-yl)oxy)-4-(4-(1-chloro-6,7,8,9-tetrahydro-5H-benzo[7]annulen-5-yl)piperazin-1-yl)-N-((4-(((7-(2,2-difluoroethyl)-7-azaspiro[3.5]nonan-2-yl)methyl)amino)-3-nitrophenyl)sulfonyl)benzamide] |  | < 50 nM | < 20 nM | 20 to 200 nM |  |  | < 30% | +++ (TGIRTV(%)≥800) |
| O=C(NS(=O)(=O)c1ccc(NCC2CC3(CCN(CCF)CC3)C2)c([N+](=O)[O-])c1)c1ccc(N2CCN([C@@H]3CCCCc4c(Cl)cccc43)CC2)cc1Oc1cnc2[nH]ccc2c1 [Compound 114, (R)-2-((1H-pyrrolo[2,3-b]pyridin-5-yl)oxy)-4-(4-(1-chloro-6,7,8,9-tetrahydro-5H-benzo[7]annulen-5-yl)piperazin-1-yl)-N-((4-(((7-(2-fluoroethyl)-7-azaspiro[3.5]nonan-2-yl)methyl)amino)-3-nitrophenyl)sulfonyl)benzamide] |  | < 50 nM | < 20 nM | < 20 nM |  |  | < 30% | +++ (TGIRTV(%)≥800) |
| O=C(NS(=O)(=O)c1ccc(NCC2CC3(CCN(CC(F)(F)F)CC3)C2)c([N+](=O)[O-])c1)c1ccc(N2CCN([C@@H]3CCCCc4c(Cl)cccc43)CC2)cc1Oc1cnc2[nH]ccc2c1 [Compound 115, (R)-2-((1H-pyrrolo[2,3-b]pyridin-5-yl)oxy)-4-(4-(1-chloro-6,7,8,9-tetrahydro-5H-benzo[7]annulen-5-yl)piperazin-1-yl)-N-((3-nitro-4-(((7-(2,2,2-trifluoroethyl)-7-azaspiro[3.5]nonan-2-yl)methyl)amino)phenyl)sulfonyl)benzamide] |  | 50 to 500 nM | < 20 nM | 200 to 2000 nM |  |  | < 30% |  |
